Source: patent US12427212B2, “Nectin-4 binding miniproteins, conjugates and uses thereof” (Aktis Oncology, Inc., priority 2023, dated 2025)
Bridges are numbered along the chain shown (N, C = ends). The star is where a group is joined. DOTA = O=C(O)CN1CCN(CC(=O)O)CCN(CC(=O)*)CCN(CC(=O)O)CC1; PEG4 = NCCOCCOCCOCCOCCC(=O)O

Experiments:
[1] = system: Opossum kidney proximal tubule cells; test: Proximal tubule epithelial cell uptake assay; assay type: cell-based; conditions: for % Uptake of C306: Table 10B, modified lysine miniproteins
Experimental: FIG. 8 is a bar graph of the percent uptake of exemplary miniproteins tested at 20 µM in a proximal tubule epithelial cell assay vs 20 μM control peptide set at 100%. […]
Opossum kidney proximal tubule cells were plated in the upper chamber of 24-well transwell plates containing 600 μL of growth media in the lower chamber and were incubated overnight at 37° C., in 5% CO2. The following day, the media was changed, and cells were incubated an additional 24 h with orbital shaking at 146 RPM. Next, cells were washed and treated in duplicates with biotinylated exemplary miniproteins pre-complexed with streptavidin-AF647 for 1 h at 37° C., and 5% C02 with continuous orbital shaking. Following incubation, cells were washed three times with 1×PBS and lysed with RIPA buffer containing protease and phosphatase inhibitor cocktail and a universal nuclease for 30 minutes. Uptake was measured on 100 μL of lysates using a fluorimeter. Mean % uptake values of control miniprotein C306 in the presence of exemplary miniproteins are provided in TABLE 10A and summarized in FIG. 8.
Uptake of engineered Nectin-4 miniproteins with further modified lysine residues (C298-C304, as described in Example 4B) was evaluated. Percent uptake of these exemplary Nectin-4-targeting miniproteins and C251 were determined against a control miniprotein, C306, using opossum kidney proximal tubule cells as described in Example 18A. Percent uptake of C298, which has an unmodified lysine (K) at amino acid position 26 (along the length of the miniprotein sequence. SEQ ID NO: 162), was 37% in the presence of […]. All other miniproteins having a modified lysine (modified with one or more small alkyl groups of monomethyl, dimethyl, trimethyl, or isopropyl group) had (i) kidney uptake similar to that of C251 and (ii) reduced uptake as compared to C298, which has an unmodified lysine at position 26.

[2] = In vivo biodistribution of 111In-labeled miniproteins by SPECT/CT, HT-1376 xenograft; parameters: species or system mouse; conditions: female, athymic nude, mouse, in vivo
Text: HT-1376 is a human cell line that expresses Nectin-4.
Humane endpoints: All animals were euthanized following the final imaging time point and carcasses were discarded according to IACUC protocols.
Image Processing: Images were generated as SPECT/CT pairs with the SPECT reported in units of activity.
Image generation: After the preprocessing described in A, individual maximum intensity projections (MIPs) were created with VivoQuant software for each subject at each time point and scaled in percent injected dose per gram (% ID/g). The CT for each image was windowed from −500 to 4500 Hounsfield Units (HU). The SPECT was windowed at various ranges to highlight different regions of uptake. Images were then stitched together using Image Magick based python tools to create montages of subjects over time and time points over groups.

[3] = In vitro metabolic stability in serum/plasma (percent parent remaining, LC-MS); assay type: in vitro ADME; conditions: mouse
Experimental: Exemplary miniproteins were spiked into biological matrices at initial concentration between 1-2 μM. Tested matrices were varied by species (mouse, rat, human) and type (plasma, serum, and kidney brush border membrane (kBBM) preparations tested each from 0.625-100 μg/mL protein content). Tested conditions were incubated with miniproteins at 37° C. for 4 h. At collection points of 0, 15, 30, 60, 120, 240 minutes, 50 μL of each condition were quenched by organic solvent (methanol or acetonitrile) or the addition of 4% phosphoric acid solution followed by solid-phase extraction. Fractions of each quenched timepoint were subsequently assayed for parent miniproteins concentration by high resolution LC-MS. Percent-parent-remaining-time plots were constructed from the ratio of each given time collection to the time-zero parent miniprotein. Percent-parent-remaining in mouse serum and plasma for exemplary miniproteins are recorded in TABLE 11.

[4] = opossum kidney proximal tubule cells, relative to control miniprotein C306

| Compound | % Uptake of C306 (Control) ([1]; Table 10A, mean percent uptake in opossum kidney cells, 1 h at 37° C., relative to control miniprotein C306) [%] | tissue uptake at 4 h [2] [%ID/g] | tissue uptake at 24 h [2] [%ID/g] | half-life [3] [h] | half-life ([3]; plasma) [h] | % Uptake of C306 [1, 4] [%] | Percent uptake of control miniprotein C306 in the presence of exemplary miniprotein ([1]; opossum kidney proximal tubule cells, 1 h at 37° C.) [%] |
| --- | --- | --- | --- | --- | --- | --- | --- |
| CC[C@H](C)[C@@H]1NC(=O)[C@H](Cc2ccc(O)cc2)NC(=O)[C@H](Cc2ccc(O)cc2)NC(=O)[C@@H]2CSSC[C@@H](C(=O)N[C@@H](CO)C(=O)O)NC(=O)CNC(=O)[C@H](CC(C)C)NC(=O)[C@H](CC(N)=O)NC(=O)[C@H](CC(=O)O)NC(=O)[C@H](CC(C)C)NC(=O)[C@H]([C@@H](C)CC)NC(=O)[C@H](CCC(=O)O)NC(=O)[C@H](CCC(=O)O)NC(=O)[C@H]([C@@H](C)CC)NC(=O)[C@H](CSSC[C@H](NC(=O)CCOCCOCCOCCOCCNC(=O)CCCC[C@@H]3SC[C@@H]4NC(=O)N[C@@H]43)C(=O)N[C@@H](CCC(=O)O)C(=O)N[C@@H](Cc3ccc(O)cc3)C(=O)N[C@@H](CC(=O)O)C(=O)N[C@@H](CCC(=O)O)C(=O)N[C@@H](CCC(=O)O)C(=O)N[C@@H](Cc3ccccc3)C(=O)N[C@@H](Cc3ccccc3)C(=O)N[C@@H]([C@@H](C)O)C(=O)N[C@@H](C)C(=O)N[C@@H](CC(C)C)C(=O)N[C@@H](CCCCN)C(=O)N[C@@H](CCCNC(=N)N)C(=O)N[C@@H](CC(C)C)C(=O)N[C@@H](CCCNC(=N)N)C(=O)NCC(=O)NCC(=O)N[C@@H](CC(=O)O)C(=O)N[C@@H]([C@@H](C)CC)C(=O)N2)NC(=O)[C@H](CC(C)C)NC(=O)CNC(=O)[C@@H]2CCCN2C(=O)[C@H](CC(C)C)NC(=O)[C@H](Cc2ccc(O)cc2)NC(=O)[C@H](CCC(N)=O)NC(=O)[C@H](Cc2ccccc2)NC(=O)[C@H](CO)NC(=O)[C@H](C)NC(=O)[C@H](CCC(N)=O)NC1=O [Compound C111] | 20.8 |  |  |  |  |  |  |
| CC[C@H](C)[C@@H]1NC(=O)[C@H](Cc2ccc(O)cc2)NC(=O)[C@H](CCC(=O)O)NC(=O)[C@@H]2CSSC[C@@H](C(=O)N[C@@H](CO)C(=O)O)NC(=O)CNC(=O)[C@H](CC(C)C)NC(=O)[C@H](CC(N)=O)NC(=O)[C@H](CC(=O)O)NC(=O)[C@H](CC(C)C)NC(=O)[C@H]([C@@H](C)CC)NC(=O)[C@H](CCC(=O)O)NC(=O)[C@H](CCC(=O)O)NC(=O)[C@H]([C@@H](C)CC)NC(=O)[C@H](CSSC[C@H](NC(=O)CCOCCOCCOCCOCCNC(=O)CN3CCN(CC(=O)O)CCN(CC(=O)O)CCN(CC(=O)O)CC3)C(=O)N[C@@H](CC(=O)O)C(=O)N[C@@H](Cc3ccc(O)cc3)C(=O)N[C@@H](CC(=O)O)C(=O)N[C@@H](CCC(=O)O)C(=O)N[C@@H](CCC(N)=O)C(=O)N[C@@H](Cc3ccccc3)C(=O)N[C@@H](Cc3ccccc3)C(=O)N[C@@H]([C@@H](C)O)C(=O)N[C@@H](C)C(=O)N[C@@H](CC(C)C)C(=O)N[C@@H](CCCCN)C(=O)N[C@@H](CCCNC(=N)N)C(=O)N[C@@H](CC(C)C)C(=O)N[C@@H](CCCNC(=N)N)C(=O)NCC(=O)N[C@@H](C)C(=O)N[C@@H](CC(=O)O)C(=O)N[C@@H]([C@@H](C)CC)C(=O)N2)NC(=O)[C@H](CCC(=O)O)NC(=O)CNC(=O)[C@@H]2CCCN2C(=O)[C@H](CC(C)C)NC(=O)[C@H](Cc2ccc(O)cc2)NC(=O)[C@H](CCC(N)=O)NC(=O)[C@H](Cc2ccccc2)NC(=O)[C@H](CO)NC(=O)[C@H](C)NC(=O)[C@H](CCC(N)=O)NC1=O [Compound C271] |  | 59.1 | 34.3 | > 12 | > 12 |  |  |
| CC[C@H](C)[C@@H]1NC(=O)[C@H](Cc2ccc(O)cc2)NC(=O)[C@H](CCC(N)=O)NC(=O)[C@@H]2CSSC[C@@H](C(=O)N[C@@H](CO)C(=O)O)NC(=O)CNC(=O)[C@H](CC(C)C)NC(=O)[C@H](CC(N)=O)NC(=O)[C@H](CC(=O)O)NC(=O)[C@H](CC(C)C)NC(=O)[C@H]([C@@H](C)CC)NC(=O)[C@H](CCC(=O)O)NC(=O)[C@H](CCC(=O)O)NC(=O)[C@H]([C@@H](C)CC)NC(=O)[C@H](CSSC[C@H](NC(=O)CCOCCOCCOCCOCCNC(=O)CCCC[C@@H]3SC[C@@H]4NC(=O)N[C@@H]43)C(=O)N[C@@H](CCC(=O)O)C(=O)N[C@@H](Cc3ccc(O)cc3)C(=O)N[C@@H](CC(=O)O)C(=O)N[C@@H](CCC(=O)O)C(=O)N[C@@H](CCC(=O)O)C(=O)N[C@@H](Cc3ccccc3)C(=O)N[C@@H](Cc3ccccc3)C(=O)N[C@@H]([C@@H](C)O)C(=O)N[C@@H](C)C(=O)N[C@@H](CC(C)C)C(=O)N[C@@H](C)C(=O)N[C@@H](CCCNC(=N)N)C(=O)N[C@@H](CC(C)C)C(=O)N[C@@H](CCCNC(=N)N)C(=O)NCC(=O)NCC(=O)N[C@@H](CC(=O)O)C(=O)N[C@@H]([C@@H](C)CC)C(=O)N2)NC(=O)[C@H](CC(C)C)NC(=O)[C@H](C)NC(=O)[C@@H]2CCCN2C(=O)[C@H](CC(C)C)NC(=O)[C@H](Cc2ccc(O)cc2)NC(=O)[C@H](CCC(N)=O)NC(=O)[C@H](Cc2ccccc2)NC(=O)[C@H](CCCCN)NC(=O)[C@H](C)NC(=O)[C@H](CCC(N)=O)NC1=O [Compound C298] |  |  |  |  |  | 37 | 37 |
| CC[C@H](C)[C@@H]1NC(=O)[C@H](Cc2ccc(O)cc2)NC(=O)[C@H](CCC(N)=O)NC(=O)[C@@H]2CSSC[C@@H](C(=O)N[C@@H](CO)C(=O)O)NC(=O)CNC(=O)[C@H](CC(C)C)NC(=O)[C@H](CC(N)=O)NC(=O)[C@H](CC(=O)O)NC(=O)[C@H](CC(C)C)NC(=O)[C@H]([C@@H](C)CC)NC(=O)[C@H](CCC(=O)O)NC(=O)[C@H](CCC(=O)O)NC(=O)[C@H]([C@@H](C)CC)NC(=O)[C@H](CSSC[C@H](NC(=O)CCOCCOCCOCCOCCNC(=O)CCCC[C@@H]3SC[C@@H]4NC(=O)N[C@@H]43)C(=O)N[C@@H](CCC(=O)O)C(=O)N[C@@H](Cc3ccc(O)cc3)C(=O)N[C@@H](CC(=O)O)C(=O)N[C@@H](CCC(=O)O)C(=O)N[C@@H](CCC(=O)O)C(=O)N[C@@H](Cc3ccccc3)C(=O)N[C@@H](Cc3ccccc3)C(=O)N[C@@H]([C@@H](C)O)C(=O)N[C@@H](C)C(=O)N[C@@H](CC(C)C)C(=O)N[C@@H](C)C(=O)N[C@@H](CCCNC(=N)N)C(=O)N[C@@H](CC(C)C)C(=O)N[C@@H](CCCNC(=N)N)C(=O)NCC(=O)NCC(=O)N[C@@H](CC(=O)O)C(=O)N[C@@H]([C@@H](C)CC)C(=O)N2)NC(=O)[C@H](CC(C)C)NC(=O)[C@H](C)NC(=O)[C@@H]2CCCN2C(=O)[C@H](CC(C)C)NC(=O)[C@H](Cc2ccc(O)cc2)NC(=O)[C@H](CCC(N)=O)NC(=O)[C@H](Cc2ccccc2)NC(=O)[C@H](CCCCNC)NC(=O)[C@H](C)NC(=O)[C@H](CCC(N)=O)NC1=O [Compound C299] |  |  |  |  |  | 3 |  |
| {DOTA-PEG4}-CEYDEEFFTALARLRGDDICSYIQAKFQYLPGLCIEEILDNLGCS-OH (disulfide 1-34, 20-44 (inferred)) [Compound C293] |  | 55.8 | 32.6 | > 12 | > 12 |  |  |
| {DOTA-PEG4}-CEYDEQFFTALKRLRGADICSYIQASFQYLPGLCIEEILDNLGCS-OH (disulfide 1-34, 20-44) [Compound C250] |  | 67.5 | 34.9 | > 12 | > 12 |  |  |
